Where “and” joins values, the source holds several entries; their conditions need not be identical. Equal values may be shown once.
Tested on: 317291-083-R-J1-PDC complex spheroids, viability
Assay: Anticancer human tumor 317291-083-R-J1-PDC patient-derived soft tissue sarcoma cell line growth inhibition [GQUAD]
Settings: for viability, T/C: stronger effect = lower value
Description: DNA G-quadruplex Stabilizer Agents in Combinations in Complex Spheroids
A high-throughput screen of multi-cell type tumor spheroids was designed to identify active combinations of DNA G-quadruplex stabilizer agents and targeted small molecules. Complex spheroids include a stromal component modeled by human endothelial cells (HUVEC) and fibroblasts modeled by human mesenchymal stem cells (MSCs). The concentration ranges selected for each drug and investigational agent were based upon clinically achievable concentrations if the clinical Cmax of the agent was known.
Compounds. The drugs and investigational agents: pidnarulex (CX-5461; NSC782164), APTO-253 (NSC789042), BRACO-19 (NSC847499), peposertib (NSC802822), ceralasertib (NSC780249), elimusertib (NSC800525), camonsertib (NSC841442), AZD-1390 (NSC803789), olaparib (NSC753686), talazoparib (NSC767125), ART-558 (NSC835418), sotorasib (NSC818433), MRTX-1133 (NSC836407), SN-38 (NSC673596), topotecan (NSC609699), etoposide (NSC141540), doxorubicin (NSC123127), gemcitabine (NSC613327), 5-fluorouracil (NSC19893), paclitaxel (NSC125973), vemurafenib (NSC761431), panobinostat (NSC761190), R-306465 (JNJ-16241199; NSC773264), adavosertib (NSC754352), TP-3654 (NSC805149), carboplatin (NSC241240), KSQ-4279 (NSC840948), and staurosporine (NSC755774) were obtained from the National Cancer Institute (NCI) Developmental Therapeutics Program Chemical Repository (34). The FDA-approved anticancer drug set is available from the NCI Developmental Therapeutics Program. […] The stock solutions were prepared in dimethyl sulfoxide (DMSO, Sigma-Aldrich, St. Louis, MO, cat. D2650) at 800-fold the tested concentration and stored at -70 degrees C prior to their use. All drugs and investigational agents were tested over a range starting from a high concentration at or near the clinical Cmax and decreasing in half-log increments. If the clinical Cmax for an agent had not been determined, the highest concentration tested was 10 microM.
2.3 Cell Culture. All cells were maintained in an incubator at 37 degrees C and 5% CO2 with 95% humidity. The PDC lines were cultured according to standard operating procedures established by the NCI PDMR. All PDCs were thawed and cultured in Matrigel-coated flasks prepared with a working solution of 1X Ham's F-12 nutrient mix, without supplementation (Invitrogen, cat. 11765054), 100 U/mL penicillin-streptomycin (Invitrogen, cat. 15140122), and 2.5% Matrigel (Corning Inc., cat. 354248) for the first three passages. The 857933-349-R-J2-PDC line was cultured in 6C/Colon 1B media, which includes advanced DMEM/F-12 (Thermo Fisher Scientific, cat. 12634028), 10 mM HEPES (Thermo Fisher Scientific, cat. 15630080), 1X GlutaMAX supplement (Thermo Fisher Scientific, cat. 35050061), 0.1 mg/mL primocin (InvivoGen, cat. ant-pm-2), 10% defined fetal bovine serum, heat inactivated (HyClone Laboratories Inc., cat. SH30070.03HI), 50% L-WRN conditioned media (ATCC, cat. CRL-3276), 1.25 mM N-Acetyl-L-cysteine (Sigma-Aldrich, cat. A9165), 10 mM nicotinamide (Sigma-Aldrich, cat. N0636), 1X B-27 supplement (Thermo Fisher Scientific, cat. 17504044), 1X N-2 supplement (Thermo Fisher Scientific, cat. 17502048), 10 microM Y-27632 dihydrochloride (Tocris Bioscience, cat. 1254), and 50 ng/mL human EGF recombinant protein (Thermo Fisher Scientific, cat. PHG0311). The 485176-168-R4-J1-PDC line was cultured in Panc media, which includes all 6C/Colon 1B media components plus 100 ng/mL human FGF-10 (Thermo Fisher Scientific, cat. 100-26), 500 nM SB-431542 (Selleckchem, cat. S1067), and gastrin (Tocris, cat. 3006).
[…]

[1] = curve of first compound, second compound 0.0316 µM
[2] = curve of first compound, second compound 0.1 µM
[3] = curve of first compound, second compound 0.316 µM
[4] = curve of first compound, second compound 1 µM
[5] = curve of first compound, second compound 3.16 µM
[6] = curve of first compound, second compound 10 µM
[7] = second compound 0.0316 µM, first compound 0.0316 µM
[8] = second compound 0.0316 µM, first compound 0.316 µM
[9] = second compound 0.1 µM, first compound 0.0316 µM
[10] = second compound 0.1 µM, first compound 0.316 µM
[11] = second compound 0.316 µM, first compound 0.0316 µM
[12] = second compound 0.316 µM, first compound 0.316 µM
[13] = second compound 1 µM, first compound 0.0316 µM
[14] = second compound 1 µM, first compound 0.316 µM
[15] = second compound 3.16 µM, first compound 0.0316 µM
[16] = second compound 3.16 µM, first compound 0.316 µM
[17] = second compound 10 µM, first compound 0.0316 µM
[18] = second compound 10 µM, first compound 0.316 µM
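Also: spheroids exposed to compounds for one week before readout.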
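For viability, T/C in this document: percent viability relative to DMSO vehicle wells taken as 100%.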

`CC[C@@]1(O)C(=O)OCc2c1cc1n(c2=O)Cc2cc3c(CN(C)C)c(O)ccc3nc2-1` + Cc1cnc(CNC(=O)c2c(=O)c3ccc(N4CCCN(C)CC4)nc3n3c2sc2ccccc23)cn1 showed an IC50 [1] of 0.0355 µM, an IC50 [2] of 0.019 µM and an IC50 [3] of under 0.000999 µM. It also gave an IC50 [4] of under 0.000999 µM, an IC50 [5] of under 0.000999 µM and an IC50 [6] of under 0.000999 µM. It also gave a viability, T/C (second compound 0.0316 µM, first compound 0.000999 µM) of 86.2%, a viability, T/C (second compound 0.0316 µM, first compound 0.00316 µM) of 93.8% and a viability, T/C (second compound 0.0316 µM, first compound 0.00999 µM) of 91.7%. It also gave a viability, T/C [7] of 53.3%, a viability, T/C (second compound 0.0316 µM, first compound 0.0999 µM) of 20.8% and a viability, T/C [8] of 15.8%. For the same molecule, the viability, T/C (second compound 0.1 µM, first compound 0.000999 µM) was 71%, the viability, T/C (second compound 0.1 µM, first compound 0.00316 µM) was 80.7% and the viability, T/C (second compound 0.1 µM, first compound 0.00999 µM) was 78.1%. The viability, T/C [9] was 29%, the viability, T/C (second compound 0.1 µM, first compound 0.0999 µM) was 21.9% and the viability, T/C [10] was 12.8%. The viability, T/C (second compound 0.316 µM, first compound 0.000999 µM) was 43.5%, the viability, T/C (second compound 0.316 µM, first compound 0.00316 µM) was 52.9% and the viability, T/C (second compound 0.316 µM, first compound 0.00999 µM) was 28.2%. The viability, T/C [11] was 20.7%, the viability, T/C (second compound 0.316 µM, first compound 0.0999 µM) was 17.3% and the viability, T/C [12] was 9.62%. The viability, T/C (second compound 1 µM, first compound 0.000999 µM) was 35.7%, the viability, T/C (second compound 1 µM, first compound 0.00316 µM) was 28.2% and the viability, T/C (second compound 1 µM, first compound 0.00999 µM) was 25.6%. For the same molecule, the viability, T/C [13] was 20.1%, the viability, T/C (second compound 1 µM, first compound 0.0999 µM) was 14.7% and the viability, T/C [14] was 15.3%. For the same molecule, the viability, T/C (second compound 3.16 µM, first compound 0.000999 µM) was 39.7%, the viability, T/C (second compound 3.16 µM, first compound 0.00316 µM) was 37.8% and the viability, T/C (second compound 3.16 µM, first compound 0.00999 µM) was 16.1%. The viability, T/C [15] was 14.7%, the viability, T/C (second compound 3.16 µM, first compound 0.0999 µM) was 13.4% and the viability, T/C [16] was 7.16%. The viability, T/C (second compound 10 µM, first compound 0.000999 µM) was 28.9%, the viability, T/C (second compound 10 µM, first compound 0.00316 µM) was 30.3% and the viability, T/C (second compound 10 µM, first compound 0.00999 µM) was 45.9%. For the same molecule, the viability, T/C [17] was 19.7%, the viability, T/C (second compound 10 µM, first compound 0.0999 µM) was 24% and the viability, T/C [18] was 12.2%.

`O=c1[nH]cc(F)c(=O)[nH]1` was tested, and the viability, T/C (compound 0.0316 µM) was 102% and 111% and 94.4%, the viability, T/C (compound 0.1 µM) was 112% and 101% and 100% and the viability, T/C (compound 0.316 µM) was 95.9% and 101% and 111%. The viability, T/C (compound 1 µM) was 59.7% and 96.8% and 66.8%, the viability, T/C (compound 3.16 µM) was 35% and 34% and 49.6% and the viability, T/C (compound 10 µM) was 36.3% and 23.9% and 38.4%. For the same molecule, the IC50 (curve of compound) was 1.6 µM and 2.36 µM and 2.34 µM.

Molecule `COc1ccc([C@@H](O)c2cc(-c3ncnc4cc(N5CCOCC5)ccc34)c(F)cc2Cl)nn1` + CN(C)c1ccc(Nc2c3ccc(NC(=O)CCN4CCCC4)cc3nc3cc(NC(=O)CCN4CCCC4)ccc23)cc1 has an IC50 [1] of 5.63 µM, an IC50 [2] of 4.16 µM and an IC50 [3] of 2.04 µM. It also gave an IC50 [4] of 0.114 µM, an IC50 [5] of under 0.0316 µM and an IC50 [6] of under 0.0316 µM. For the same molecule, the viability, T/C [7] was 111%, the viability, T/C (second compound 0.0316 µM, first compound 0.1 µM) was 108% and the viability, T/C [8] was 94%. It also gave a viability, T/C (second compound 0.0316 µM, first compound 1 µM) of 89.4%, a viability, T/C (second compound 0.0316 µM, first compound 3.16 µM) of 67.4% and a viability, T/C (second compound 0.0316 µM, first compound 10 µM) of 33.1%. The viability, T/C [9] was 104%, the viability, T/C (second compound 0.1 µM, first compound 0.1 µM) was 97.5% and the viability, T/C [10] was 104%. It also gave a viability, T/C (second compound 0.1 µM, first compound 1 µM) of 82%, a viability, T/C (second compound 0.1 µM, first compound 3.16 µM) of 57% and a viability, T/C (second compound 0.1 µM, first compound 10 µM) of 31%. It also gave a viability, T/C [11] of 85.2%, a viability, T/C (second compound 0.316 µM, first compound 0.1 µM) of 76.3% and a viability, T/C [12] of 71.6%. For the same molecule, the viability, T/C (second compound 0.316 µM, first compound 1 µM) was 61%, the viability, T/C (second compound 0.316 µM, first compound 3.16 µM) was 43.5% and the viability, T/C (second compound 0.316 µM, first compound 10 µM) was 21.9%. The viability, T/C [13] was 57.5%, the viability, T/C (second compound 1 µM, first compound 0.1 µM) was 42.6% and the viability, T/C [14] was 47.9%. It also gave a viability, T/C (second compound 1 µM, first compound 1 µM) of 42.5%, a viability, T/C (second compound 1 µM, first compound 3.16 µM) of 28.8% and a viability, T/C (second compound 1 µM, first compound 10 µM) of 12.8%. For the same molecule, the viability, T/C [15] was 22.4%, the viability, T/C (second compound 3.16 µM, first compound 0.1 µM) was 24.1% and the viability, T/C [16] was 32.2%. The viability, T/C (second compound 3.16 µM, first compound 1 µM) was 15.5%, the viability, T/C (second compound 3.16 µM, first compound 3.16 µM) was 8.93% and the viability, T/C (second compound 3.16 µM, first compound 10 µM) was 6.58%. For the same molecule, the viability, T/C [17] was 12.8%, the viability, T/C (second compound 10 µM, first compound 0.1 µM) was 15% and the viability, T/C [18] was 3.27%. It also gave a viability, T/C (second compound 10 µM, first compound 1 µM) of 5.49%, a viability, T/C (second compound 10 µM, first compound 3.16 µM) of 11.5% and a viability, T/C (second compound 10 µM, first compound 10 µM) of 1.01%.
